Source: patent publication US9217743B2, “Screening method utilizing thalidomide-targeting factor” (Tokyo Institute of Technology, priority 2009, dated 2015)
“Also recorded” adds a separate entry of the source.

Columns and labels:
CRBN Y384A = biological target: T1, CRBN Y384A (Homo sapiens, UniProt Q96SW2, Y384A); test: Binding of CRBN point mutant from 293T extracts to thalidomide-immobilized beads
T1 construct: expressed in transfected cells; host or cells: 293T
From the text: (§1) First, thalidomide-binding region was investigated by using the N-terminal and C-terminal deletion mutants. […] The present inventors investigated whether this CRBN YW/AA functionally active in the cells. The subcellular localization of this mutant was indistinguishable from that of wild-type CRBN.
(§2) Recombinant CRBN-FLAG and DDB1-V5-His proteins were expressed in the insect Sf9 cells by using the Bac-to-bac baculovirus expression system (Invitrogen) and purified using anti-FLAG M2 agarose beads (Sigma) and Ni-NTA agarose beads (Qiagen), respectively. Purified CRBN-FLAG and/or DDB1-V5-His were mixed with thalidomide-immobilized beads, and the bound proteins were eluted with an SDS sample buffer. For analysis of CRBN-deletion mutant, GST-fused CRBN and its mutants were expressed in E. coli BL21 and purified using glutathione Sepharose (GE Healthcare). CRBN mutants were overexpressed in 293T cells by transfection using Lipofectamine 2000 (Invitrogen). Subsequent binding assays were carried out as described above.

CRBN W386A = biological target: T2, CRBN W386A (Homo sapiens, UniProt Q96SW2, W386A); test: as above
T2 construct: expressed in transfected cells; host or cells: 293T
From the text: as §1, §2

fgf8a = test: Whole-mount in situ hybridization of zebrafish fin buds; assay type: in vivo
From the text: (§3) To obtain a clue to the pathway(s) downstream of CRBN and thalidomide, the present inventors analyzed well-known key molecules in fin development. Sonic hedgehog (Shh) is expressed in the zone of polarizing activity (ZPA) and is responsible for anteroposterior patterning of the limb and fin (Cited Literature 27), whereas Fgf8 is expressed in the apical ectodermal ridge (AER) of the limb and fin and is necessary for outgrowth of the limb and fin along the proximodistal axis. […] Thus, an inhibitor of FGF8 production is a possible downstream target of thalidomide and the CRBN-containing E3 complex.
(§4) This assay was carried out in accordance with Cited Literature 41. Antisense probe for zcrbn mRNA was directed against the 5′-coding region of 513 bp. Antisense probe for zcul4a was directed against the 3′ untranslated region (3′ UTR) of 590 bp. Probes for shh and fgf8 were kindly provided by Dr. Krauss and Dr. Thisse, respectively. To increase permeability of probes, fixed embryos were incubated with PBS containing 0.1% Tween-20 and […] proteinase K for two minutes at room temperature.

shh = test: as above; assay type: in vivo; conditions: thalidomide-treated 48-hpf embryos
From the text: as §3, §4

CRBN YW/AA (Y384A/W386A) = biological target: T3, CRBN YW/AA (Y384A/W386A) (Homo sapiens, UniProt Q96SW2, W386A/Y384A); test: Binding of CRBN double mutant from 293T extracts to thalidomide-immobilized beads
T3 construct: expressed in transfected cells; host or cells: 293T
From the text: as §1, §2

DDB1 = test: Elution of DDB1 from thalidomide-immobilized beads by test compound, Western blotting; conditions: Example 6; 293T extracts; elution with 1 mM compound
DDB1 and CRBN = biological target: T4, DDB1 and CRBN (Homo sapiens, UniProt Q96SW2); test: Affinity purification from HeLa cell extracts with thalidomide-immobilized beads, competition by free thalidomide; assay type: binding; conditions: 0.3 mM free thalidomide added to HeLa extracts before the beads
T4 construct: endogenous in cells; host or cells: HeLa
Procedure: To purify thalidomide-binding proteins, the present inventors performed affinity purification using FG beads, which are magnetic particles (Cited Literature 9). FR259625, a thalidomide derivative in which a carboxyl group is added was covalently immobilized on the FG beads (FIG. 6), and mixed and incubated with human HeLa cell extracts. […] The 127 and 55 kDa proteins were analyzed by mass spectrometry and identified as DDB1 and CRBN, respectively (Table 1). Identities of these proteins were also confirmed by Western blotting (immunoblotting) (FIG. 1A), and further, these proteins were isolated similarly as thalidomide binding protein from extracts of various cell types (FIG. 7). To determine whether this interaction with thalidomide is direct, the present inventors purified recombinant proteins. CRBN-FLAG, but not DDB1-V5-His, bound to thalidomide-immobilized beads (FIG. 1B).

DDB1-V5-His = biological target: T5, DDB1-V5-His (Homo sapiens, UniProt Q16531); test: In vitro binding assay of purified recombinant protein with thalidomide-immobilized beads
T5 construct: made in house; host or cells: Sf9 insect cells (Bac-to-bac baculovirus)
From the text: as §2

CRBN-FLAG = biological target: T6, CRBN-FLAG (Homo sapiens, UniProt Q96SW2); test: as above
T6 construct: made in house; host or cells: Sf9 insect cells (Bac-to-bac baculovirus)
From the text: as §2

zCrbn YW/AA = biological target: T7, zCrbn YW/AA (Danio rerio, UniProt Q68EH9, W376A/Y374A); test: Binding of FLAG-zCrbn YW/AA from 293T lysate to thalidomide beads; parameters: species or system zebrafish; conditions: FLAG-zCrbn YW/AA in 293T lysate
T7 construct: expressed in transfected cells; host or cells: 293T
T7 sequence (Q68EH9 1-431 Y374A/W376A): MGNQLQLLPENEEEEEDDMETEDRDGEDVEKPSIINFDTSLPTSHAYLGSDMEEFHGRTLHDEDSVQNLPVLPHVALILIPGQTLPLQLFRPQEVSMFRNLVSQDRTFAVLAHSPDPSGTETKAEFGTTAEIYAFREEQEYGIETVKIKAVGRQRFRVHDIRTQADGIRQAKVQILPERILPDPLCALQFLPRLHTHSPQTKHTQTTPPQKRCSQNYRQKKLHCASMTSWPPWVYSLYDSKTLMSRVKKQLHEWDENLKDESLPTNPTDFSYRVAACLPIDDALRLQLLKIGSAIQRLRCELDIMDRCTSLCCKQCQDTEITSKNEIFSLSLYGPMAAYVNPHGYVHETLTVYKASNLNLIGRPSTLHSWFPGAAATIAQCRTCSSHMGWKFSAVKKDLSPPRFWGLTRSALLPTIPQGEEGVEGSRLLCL
Procedure: FIG. 14 relates to biochemical analysis results of zCrbn. […] Bound proteins were eluted by thalidomide, and eluate were analyzed by western blotting. zCrbn bound to thalidomide. (B) Lysate from 293T cells overexpressing FH-zCrbn was immunoprecipitated with anti-FLAG antibody, and DDB1 was detected by western blotting. […] (C) Lysate from FLAG-zCrbn (wild type) or FLAG-zCrbn YW/AA overexpressed in 293T cells was mixed with thalidomide beads. For quantification, various amounts of input and eluate fraction were analyzed by western blotting.
If so, its teratogenicity should be alleviated by expression of functionally active but thalidomide-binding-defective zCrbn. To examine this idea, the present inventors prepared mutants in which Y374 and W376 are substituted with alanine (corresponding to YW/AA in humans, namely Y384A/W386A). The zCrbn YW/AA has extremely low thalidomide-binding activity. In the absence of thalidomide, Overexpression of wild-type zCrbn or zCrbn YW/AA had no discernible effect on fin and otic vesicle development. […] Also thalidomide treatment of embryos overexpressing wild-type zCrbn reduced the size of otic vesicles to approximately 66% of the control size. […] Thalidomide-induced fin degeneration was also rescued by overexpression of zCrbn YW/AA.

O=C1CCC(N2C(=O)c3ccccc3C2=O)C(=O)N1 (centres unmarked) [thalidomide]
thalidomide binding of CRBN Y384A (CRBN Y384A): defective | thalidomide binding of CRBN W386A (CRBN W386A): defective | fgf8a expression (fgf8a; thalidomide-treated 48-hpf embryos): reduced or absent; also recorded: severely reduced | fgf8a expression (fgf8a; thalidomide-treated embryos injected with zCrbn YW/AA): restored | shh expression (shh): no change | thalidomide-binding activity of CRBN YW/AA (CRBN YW/AA (Y384A/W386A)): extremely low | DDB1 in the eluate fraction (DDB1): detected | yield of DDB1 and CRBN on the beads (DDB1 and CRBN): reduced significantly | binding of thalidomide to recombinant DDB1-V5-His (DDB1-V5-His): indirectly via CRBN | binding of thalidomide to recombinant CRBN-FLAG (CRBN-FLAG): directly binds | thalidomide-binding activity of zCrbn YW/AA (zCrbn YW/AA): extremely low; also recorded: obviously weak
